Assay results taken from patent US20240376076A1, “INHIBITORS TARGETING UBIQUITIN SPECIFIC PROTEASE 7 (USP7)” (Dana-Farber Cancer Institute, Inc., priority 2021, published 2024).

biological target: T1, USP7, Active human recombinant protein (Homo sapiens, UniProt Q93009); assay: USP7 assay (Ubiquitin-Rhodamine 110 enzymatic assay); assay type: biochemical; settings: read-out: IC50
T1 construct: purchased CP Lot; 20200225001
Method: Enzymatic Assays with Exemplary USP7 Irreversible Inhibitors
ND refers to not disclosed.
USP7, Active human recombinant protein (CP, Lot. 20200225001), Ubiquitin-Rhodamine 110 (Rh110) (BostonBiochem, Cat. No. U-555), DMSO (Sigma, Cat. N34869), DTT (Sangon Biotech, Cat. No. A620058-0005), […] Tris pH 8.0 (Sigma, Cat. No. T2694-1L), Tween-20 (Sigma, Cat. No. P2287-100ML), EDTA (Invitrogen, Cat. No. 15575020, BSA (Sigma, Cat. No. B2064-100G), 384-well assay plate (Corning, Cat. No. 3573), Echo Qualified 384-Well Polypropylene Microplate 2.0, Clear, Flat Bottom (LABCYTE, Cat. No. 001-14555).
Dilute the compounds to 400× of the final desired highest inhibitor concentration in reaction by 100% DMSO. For all compounds, transfer the compounds to one well in a 384-well Echo plate and serially dilute the compound by 3-fold dilution of 100% DMSO in the next well and so forth for a total of 10 concentrations by Precision. Add 30 μL of 100% DMSO to two empty wells for no compound control and no enzyme control in the same 384-well Echo plate. Make the plate as a source plate.
For USP7 assay, transfer 50 nL of each well from the source plate to a 384-well assay plate (OptiPlate TM-384 F black assay plates) by Echo 550 Liquid Handler.
Added appropriate amount of USP7 in 1× assay Buffer to prepare 2× enzyme solution (USP7 final concentration: 0.05 nM). Added appropriate amount of Ubiquitin-Rhodamine 110 in 1× assay Buffer to prepare 2× substrate solution (Ubiquitin-Rhodamine 110 final concentration: 190 nM). Added 10 μL of 2× enzyme solution to each reaction well of the 384-well assay plate, except for control wells without enzyme (add 10 μL of 1× Assay Buffer instead as for low control). […] Transferred 2× substrate solution to the assay plate. Added 10 μL of 2× substrate solution to each well of the 384-well assay plate to start reaction. Centrifuged at 1000 rpm for 1 min. Read the plate kinetically on SpectraMax Paradigm for 20 min with excitation at 485 nm and emission at 535 nm. Copied raw data (slope) from Reader to obtain inhibition values in Excel using equation (1): […]
Max signal was obtained from the action of Enzyme and Substrate. Min signal was obtained from the Substrate only. To fit the data in XLFit excel add-in version 5.4.0.8 to obtain IC50 values used equation (2): […]
Y is % inhibition and X is compound concentration.

T1 sequence (Q93009 whole entry): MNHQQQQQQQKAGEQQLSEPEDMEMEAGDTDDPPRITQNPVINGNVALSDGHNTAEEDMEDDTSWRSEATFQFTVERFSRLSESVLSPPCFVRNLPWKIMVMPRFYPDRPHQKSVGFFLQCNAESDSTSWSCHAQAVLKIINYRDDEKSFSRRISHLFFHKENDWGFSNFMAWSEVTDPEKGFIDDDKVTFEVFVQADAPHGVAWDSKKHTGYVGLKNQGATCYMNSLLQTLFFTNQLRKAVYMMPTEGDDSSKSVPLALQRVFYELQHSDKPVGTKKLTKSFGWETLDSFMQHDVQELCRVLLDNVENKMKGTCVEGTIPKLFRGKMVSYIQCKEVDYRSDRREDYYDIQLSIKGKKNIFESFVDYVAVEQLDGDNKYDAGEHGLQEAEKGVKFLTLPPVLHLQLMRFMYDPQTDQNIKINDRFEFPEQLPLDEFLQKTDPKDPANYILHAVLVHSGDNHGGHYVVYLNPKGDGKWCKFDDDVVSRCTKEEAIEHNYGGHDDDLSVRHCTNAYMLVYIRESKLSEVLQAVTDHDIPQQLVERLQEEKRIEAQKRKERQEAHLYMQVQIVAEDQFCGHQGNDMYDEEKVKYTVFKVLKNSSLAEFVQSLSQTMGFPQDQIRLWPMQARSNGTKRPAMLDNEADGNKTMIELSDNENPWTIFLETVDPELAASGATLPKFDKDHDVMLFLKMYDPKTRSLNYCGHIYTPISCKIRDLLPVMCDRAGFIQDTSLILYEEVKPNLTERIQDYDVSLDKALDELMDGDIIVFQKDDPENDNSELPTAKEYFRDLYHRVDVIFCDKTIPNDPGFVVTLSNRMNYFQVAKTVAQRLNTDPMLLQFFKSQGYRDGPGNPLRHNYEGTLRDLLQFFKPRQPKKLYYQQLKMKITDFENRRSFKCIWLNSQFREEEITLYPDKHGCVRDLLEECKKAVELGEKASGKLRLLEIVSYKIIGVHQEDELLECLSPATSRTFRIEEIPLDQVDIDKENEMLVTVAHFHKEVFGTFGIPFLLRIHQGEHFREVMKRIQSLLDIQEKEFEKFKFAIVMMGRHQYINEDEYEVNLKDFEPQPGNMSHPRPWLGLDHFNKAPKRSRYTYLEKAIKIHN

SMILES	IC50 [nM]
CN(C)CCOc1ccc2ncn(CC3(O)CCN(C(=O)C(CCCNC(=O)c4ccc5c(Cl)ccnc5c4)Cc4ccccc4)CC3)c(=O)c2c1 (stereo not shown) [Compound 39, N-(4-benzyl-5-(4-((6-(2-(dimethylamino)ethoxy)-4-oxoquinazolin-3(4H)-yl)methyl)-4-hydroxypiperidin-1-yl)-5-oxopentyl)-4-chloroquinoline-7-carboxamide]	> 1000
CN(C)CCC(=O)Nc1ccc2c(=O)n(CC3(O)CCN(C(=O)[C@@H](CCCNC(=O)c4ccc5c(Cl)c6c(nc5c4)CN(C)CC6)Cc4ccccc4)CC3)cnc2c1 [Compound 41]	< 20
CN(C)CCC(=O)Nc1ccc2c(=O)n(CC3(O)CCN(C(=O)[C@H](CCCNC(=O)c4ccc5c(Cl)c6c(nc5c4)CN(C)CC6)Cc4ccccc4)CC3)cnc2c1 [Compound 42]	100 to 1000
Cc1cc(Cl)nc2c(C(=O)NCCCC(Cc3ccccc3)C(=O)N3CCC(O)(Cn4cnc5cc(NC(=O)CCN(C)C)ccc5c4=O)CC3)ccn12 (stereo not shown) [Compound 44, N-(4-benzyl-5-(4-((7-(3-(dimethylamino)propanamido)-4-oxoquinazolin-3(4H)-yl)methyl)-4-hydroxypiperidin-1-yl)-5-oxopentyl)-2-chloro-4-methylpyrrolo[1,2-a]pyrimidine-8-carboxamide]	> 1000
Cc1cc(Cl)n2cc(C(=O)NCCCC(Cc3ccccc3)C(=O)N3CCC(O)(Cn4cnc5cc(NC(=O)CCN(C)C)ccc5c4=O)CC3)cc2n1 (stereo not shown) [Compound 45, N-(4-benzyl-5-(4-((7-(3-(dimethylamino)propanamido)-4-oxoquinazolin-3(4H)-yl)methyl)-4-hydroxypiperidin-1-yl)-5-oxopentyl)-4-chloro-2-methylpyrrolo[1,2-a]pyrimidine-7-carboxamide]	> 1000
CN(C)CCC(=O)Nc1ccc2c(=O)n(CC3(O)CCN(C(=O)C(CCCNc4cccc(-c5cc(Cl)ccn5)c4)Cc4ccccc4)CC3)cnc2c1 (stereo not shown) [Compound 46]	> 1000
CN(C)CCC(=O)Nc1ccc2c(=O)n(CC3(O)CCN(C(=O)C(CCCNC(=O)c4cc5c(Cl)ccnc5[nH]4)Cc4ccccc4)CC3)cnc2c1 (stereo not shown) [Compound 48, N-(4-benzyl-5-(4-((7-(3-(dimethylamino)propanamido)-4-oxoquinazolin-3(4H)-yl)methyl)-4-hydroxypiperidin-1-yl)-5-oxopentyl)-4-chloro-1H-pyrrolo[2,3-b]pyridine-2-carboxamide]	> 1000
Cc1cc(Cl)c2ccc(C(=O)NCCC[C@H](Cc3ccccc3)C(=O)N3CCC(O)(Cn4cnc5cc(NC(=O)CCN(C)C)ccc5c4=O)CC3)cc2n1 [Compound 50, (R)—N-(4-benzyl-5-(4-((7-(3-(dimethylamino)propanamido)-4-oxoquinazolin-3(4H)-yl)methyl)-4-hydroxypiperidin-1-yl)-5-oxopentyl)-4-chloro-2-methylquinoline-7-carboxamide]	> 1000
Cc1cc(Cl)c2ccc(C(=O)NCCC[C@@H](Cc3ccccc3)C(=O)N3CCC(O)(Cn4cnc5cc(NC(=O)CCN(C)C)ccc5c4=O)CC3)cc2n1 [Compound 51, (S)—N-(4-benzyl-5-(4-((7-(3-(dimethylamino)propanamido)-4-oxoquinazolin-3(4H)-yl)methyl)-4-hydroxypiperidin-1-yl)-5-oxopentyl)-4-chloro-2-methylquinoline-7-carboxamide]	20 to 100
CN(C)CCC(=O)Nc1ccc2c(=O)n(CC3(O)CCN(C(=O)c4cnn(CCNC(=O)c5ccc6c(Cl)ccnc6c5)c4Cc4ccccc4)CC3)cnc2c1 [Compound 53, N-(2-(5-benzyl-4-(4-((7-(3-(dimethylamino)propanamido)-4-oxoquinazolin-3(4H)-yl)methyl)-4-hydroxypiperidine-1-carbonyl)-1H-pyrazol-1-yl)ethyl)-4-chloroquinoline-7-carboxamide]	100 to 1000
CN(C)CCC(=O)Nc1ccc2c(=O)n(CC3(O)CCN(C(=O)[C@@]4(Cc5ccccc5)CCN(CCNC(=O)c5ccc6c(Cl)ccnc6c5)C4)CC3)cnc2c1 [Compound 57]	> 1000
CN1CCN(CCC(=O)Nc2ccc3c(=O)n(CC4(O)CCN(C(=O)[C@H](CCCNC(=O)c5ccc6c(Cl)ccnc6c5)Cc5ccccc5)CC4)cnc3c2)CC1 [Compound 58, (R)—N-(4-benzyl-5-(4-hydroxy-4-((7-(3-(4-methylpiperazin-1-yl)propanamido)-4-oxoquinazolin-3(4H)-yl)methyl)piperidin-1-yl)-5-oxopentyl)-4-chloroquinoline-7-carboxamide]	> 1000
O=C(CCn1cccn1)Nc1ccc2c(=O)n(CC3(O)CCN(C(=O)C(CCCNC(=O)c4ccc5c(Cl)ccnc5c4)Cc4ccccc4)CC3)cnc2c1 (stereo not shown) [Compound 64, N-(5-(4-((7-(3-(JH-pyrazol-1-yl)propanamido)-4-oxoquinazolin-3(4H)-yl)methyl)-4-hydroxypiperidin-1-yl)-4-benzyl-5-oxopentyl)-4-chloroquinoline-7-carboxamide]	100 to 1000
COc1cc(Cl)c2ccc(C(=O)NCCCC(Cc3ccccc3)C(=O)N3CCC(O)(Cn4cnc5cc(NC(=O)CCN(C)C)ccc5c4=O)CC3)cc2n1 (stereo not shown) [Compound 66]	> 1000
COc1cc(Cl)nc2cc(C(=O)NCCCC(Cc3ccccc3)C(=O)N3CCC(O)(Cn4cnc5cc(NC(=O)CCN(C)C)ccc5c4=O)CC3)ccc12 (stereo not shown) [Compound 67]	> 1000
CN(C)CCC(=O)Nc1ccc2c(=O)n(CC3(O)CCN(C(=O)C(CCCNC(=O)c4ccc5c(Cl)nccc5c4)Cc4ccccc4)CC3)cnc2c1 (stereo not shown) [Compound 68]	> 1000

SMILES	IC50 [nM]
CN(C)CCC(=O)Nc1ccc2c(=O)n(CC3(O)CCN(C(=O)[C@H]4CCN(CCNC(=O)c5ccc6c(Cl)ccnc6c5)C[C@@H]4c4ccccc4)CC3)cnc2c1 [Compound 74]	> 1000
CN(C)CCC(=O)Nc1ccc2c(=O)n(CC3(O)CCN(C(=O)[C@@H]4CN(CCNC(=O)c5ccc6c(Cl)ccnc6c5)C[C@H]4c4ccccc4)CC3)cnc2c1 [Compound 76]	100 to 1000
CN(C)CCC(=O)Nc1ccc2c(=O)n(CC3(O)CCN(C(=O)C(CCCNC(=O)c4ccc5c(Cl)ccnc5c4)Cc4cccnc4)CC3)cnc2c1 (stereo not shown) [Compound 82]	100 to 1000
CN(C)CCC(=O)Nc1ccc2c(=O)n(CC3(O)CCN(C(=O)N(CCCNC(=O)c4ccc5c(Cl)ccnc5c4)Cc4ccccc4)CC3)cnc2c1 [Compound 83]	> 1000
CN(C)CCC(=O)Nc1ccc2c(=O)n(CC3(O)CCN(C(=O)C(CCCNC(=O)c4ccc5c(Cl)c6c(nc5c4)CNCC6)Cc4ccccc4)CC3)cnc2c1 (stereo not shown) [Compound 88]	> 1000
CN(C)CCC(=O)Nc1ccc2c(=O)n(CC3(O)CCN(C(=O)C(CCCNC(=O)c4ccc5c(Cl)c6c(nc5c4)CCOC6)Cc4ccccc4)CC3)cnc2c1 (stereo not shown) [Compound 90]	20 to 100
C=CS(=O)(=O)Nc1ccccc1N1CCC(C(=O)N2CCC(O)(Cn3cnc4cc(NC(=O)CCN5CCN(C)CC5)ccc4c3=O)CC2)CC1 [Compound 92]	20 to 100
O=C(NCCN1CC[C@@H](C(=O)N2CCC(O)(Cn3cnc4c(-c5ccc(Br)cc5)nsc4c3=O)CC2)[C@H](c2ccccc2)C1)c1ccc2c(Cl)ccnc2c1 [Compound 98]	100 to 1000
CC1(C)C2C(=O)N(CC3(O)CCN(C(=O)[C@@H]4CCN(CCNC(=O)c5ccc6c(Cl)ccnc6c5)C[C@H]4c4ccccc4)CC3)C(=O)C21 (stereo partly shown) [Compound 99]	> 1000
O=C(CCN1CCNCC1)Nc1ccn2c(=O)c(CN3CCN(C(=O)[C@@H]4CCN(CCNC(=O)c5ccc6c(Cl)ccnc6c5)C[C@H]4c4ccccc4)CC3)cnc2c1 [Compound 100]	> 1000
O=C(CCN1CCNCC1)Nc1ccc2c(=O)n(CC3(O)CCN(C(=O)[C@@H]4CCN(CCNC(=O)c5ccc6c(Cl)ccnc6c5)C[C@H]4c4ccc(C(F)(F)F)cc4)CC3)cnc2c1 [Compound 101]	> 1000
C=CC(=O)Nc1ccc(Cl)cc1N1CCC(C(=O)N2CCC(O)(Cn3cnc4cc(NC(=O)CCN5CCN(C)CC5)ccc4c3=O)CC2)C(c2ccccc2)C1 (stereo not shown) [Compound 103]	100 to 1000
C=CC(=O)Nc1ccc(C(F)(F)F)cc1N1CCC(C(=O)N2CCC(O)(Cn3cnc4cc(NC(=O)CCN5CCN(C)CC5)ccc4c3=O)CC2)C(c2ccccc2)C1 (stereo not shown) [Compound 104]	100 to 1000
O=C(NCCN1CCC(C(=O)N2CCC(O)(Cn3cnc4cc(OCCN5CCNCC5)ccc4c3=O)CC2)C(c2ccccc2)C1)c1ccc2c(Cl)cc(C3CC3)nc2c1 (stereo not shown) [Compound 107]	20 to 100
CN(C)CCOc1cc(F)c2c(=O)n(CC3(O)CCN(C(=O)[C@H](CCCNC(=O)c4ccc5c(Cl)cc(C6CC6)nc5c4)Cc4ccccc4)CC3)cnc2c1 [Compound 118]	100 to 1000
